Assay results as given in patent US20140005119A1, “COMPOSITIONS AND METHODS FOR INHIBITING THE ACTIVITY OF P110a MUTANT PROTEINS” (Case Western Reserve University, priority 2012, published 2014).
Bridges are numbered along the chain shown (N, C = ends). Where no end group is shown, it is not given here. [ ]: non-standard residue; d: D form. S5 = C=CCCC[C@](C)(N)C(=O)O

What was measured:
[1] = test system: HCT116 xenograft tumor (p110α H1047R); assay: Peptide treatment of HCT116 xenograft tumors in athymic nude mice; type: in vivo; conditions: intratumoral 250 μg daily for 14 days
[2] = test system: DLD1 xenograft tumor (p110α E545K); assay: Peptide treatment of DLD1 xenograft tumors in athymic nude mice; type: in vivo; conditions: intratumoral 250 μg daily for 14 days, versus water control
Protocol: FIGS. 5(A-D) illustrate: (A) An athymic nude mouse with a xenograft Tumor growth of cancer cells harboring the p110α E545K Mutation (A and B) and treated with Stapled p110α E545K Mutant Peptide. Five million DLD1 cells were injected subcutaneously and bilaterally into athymic nude mice. Once the xenograft tumors reach 100-150 mm^3, the left side tumors were injected with the stapled WT peptide and the right side tumors were injected with the stapled mutant peptide daily for 14 days. Ten tumors of similar size in five other athymic nude mice were injected with an equal amount of water as controls. Tumor sizes were measured every 2 days. Representative pictures of mice injected with the peptides are shown in (A) and quantitative measurements are shown in (B). Arrows indicate tumors treated with the stapled WT peptide and the red arrows indicate tumors treated with the stapled mutant peptide. The p value was calculated using ANOVA analysis. […] All quantitative measurements are plotted as mean±SEM.
Animal experiments were approved by the Case Western Reserve University Animal Care and Use Committee. […] Tumor volume was measured with electronic calipers, and volumes were calculated as length 3 width^2/2.
Five-week-old male athymic nude mice were injected with 5 million cells subcutaneously and bilaterally. […] The tumor sizes were measured every 2 days.

H2N-SEITEQEKD^549-FLW-S^553-HRHYC-COOH (SEITEQEK[S5]FLW[S5]HRHYC; staple 9-13; not fully specified (N-terminus, C-terminus); printed as H2N-SEITEQEKD549-FLW-S553-HRHYC-COOH; listed as Homo sapiens) [stapled WT peptide, stapled wild-type p110α counterpart of the stapled mutant peptide, used as control, reference compound]
xenograft tumor growth of HCT116 CRC cells [1]: neither the stapled WT nor the stapled mutant peptide inhibited
DLD1 xenograft tumor growth [2]: did not inhibit

H2N-SEITKQEK-D^549-FLW-S^553-HRHYC-COOH [stapled mutant peptide]
xenograft tumor growth of HCT116 CRC cells [1]: neither the stapled WT nor the stapled mutant peptide inhibited
DLD1 xenograft tumor growth [2]: significantly slowed
